Laboratory results as given in PubChem BioAssay AID1963439 (Molecular Pharmacology Branch, DTP, NCI, 2024).

Test system: NCI-H196 complex spheroids with HUVEC/MSC, growth % T/C
Experiment: Anticancer human tumor NCI-H196 cell line growth inhibition [Asc];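 also: spheroids exposed to compound for 7 days before measurement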;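 as to viability, T/C: 100% = DMSO vehicle control wells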
Conditions: for IC50: curve of first compound; for viability, T/C: stronger effect = lower value
Procedure, shortened: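 Tumor cells were grown as complex spheroids with human endothelial cells (HUVEC) and human mesenchymal stem cells as stroma. Agents were tested alone and in combination, in half-log steps down from the clinical Cmax, or from 10 microM where Cmax was unknown.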

[1] = second compound 0.01 µM, first compound 0.00316 µM
[2] = second compound 0.01 µM, first compound 0.01 µM
[3] = second compound 0.01 µM, first compound 0.0316 µM
[4] = second compound 0.01 µM, first compound 0.1 µM
[5] = second compound 0.01 µM, first compound 0.316 µM
[6] = second compound 0.01 µM, first compound 1 µM
[7] = second compound 0.0316 µM, first compound 0.00316 µM
[8] = second compound 0.0316 µM, first compound 0.01 µM
[9] = second compound 0.0316 µM, first compound 0.0316 µM
[10] = second compound 0.0316 µM, first compound 0.1 µM
[11] = second compound 0.0316 µM, first compound 0.316 µM
[12] = second compound 0.0316 µM, first compound 1 µM
[13] = second compound 0.1 µM, first compound 0.00316 µM
[14] = second compound 0.1 µM, first compound 0.01 µM
[15] = second compound 0.1 µM, first compound 0.0316 µM
[16] = second compound 0.1 µM, first compound 0.1 µM
[17] = second compound 0.1 µM, first compound 0.316 µM
[18] = second compound 0.1 µM, first compound 1 µM
[19] = second compound 0.316 µM, first compound 0.00316 µM
[20] = second compound 0.316 µM, first compound 0.01 µM
[21] = second compound 0.316 µM, first compound 0.0316 µM
[22] = second compound 0.316 µM, first compound 0.1 µM
[23] = second compound 0.316 µM, first compound 0.316 µM
[24] = second compound 0.316 µM, first compound 1 µM
[25] = second compound 1 µM, first compound 0.00316 µM
[26] = second compound 1 µM, first compound 0.01 µM
[27] = second compound 1 µM, first compound 0.0316 µM
[28] = second compound 1 µM, first compound 0.1 µM
[29] = second compound 1 µM, first compound 0.316 µM
[30] = second compound 1 µM, first compound 1 µM

CCN1CCN(Cc2ccc(Nc3ncc(F)c(-c4cc(F)c5nc(C)n(C(C)C)c5c4)n3)nc2)CC1 + CNC(C)C(=O)NC1CN(S(=O)(=O)c2cccc(S(=O)(=O)N3CCC4CCC(C(=O)NC(c5ccccc5)c5ccccc5)N4C(=O)C(NC(=O)C(C)NC)C3)c2)CCC2CCC(C(=O)NC(c3ccccc3)c3ccccc3)N2C1=O
IC50 (second compound 0.01 µM): < 3.16 nM
IC50 (second compound 0.0316 µM): < 3.16 nM
IC50 (second compound 0.1 µM): < 3.16 nM
IC50 (second compound 0.316 µM): < 3.16 nM
IC50 (second compound 1 µM): < 3.16 nM
viability, T/C [1]: 5.3%
viability, T/C [2]: 6.9%
viability, T/C [3]: 9.46%
viability, T/C [4]: 7.15%
viability, T/C [5]: 6.5%
viability, T/C [6]: 5.95%
viability, T/C [7]: 4.57%
viability, T/C [8]: 4.1%
viability, T/C [9]: 3.84%
viability, T/C [10]: 4.62%
viability, T/C [11]: 6.92%
viability, T/C [12]: 5.07%
viability, T/C [13]: 3.7%
viability, T/C [14]: 4.39%
viability, T/C [15]: 3.41%
viability, T/C [16]: 3.01%
viability, T/C [17]: 4.87%
viability, T/C [18]: 3.86%
viability, T/C [19]: 2.69%
viability, T/C [20]: 4.01%
viability, T/C [21]: 3.79%
viability, T/C [22]: 4.21%
viability, T/C [23]: 3.33%
viability, T/C [24]: 3.67%
viability, T/C [25]: 2.84%
viability, T/C [26]: 3.75%
viability, T/C [27]: 3.08%
viability, T/C [28]: 3.26%
viability, T/C [29]: 3.93%
viability, T/C [30]: 3.85%

Cn1ncnc1[C@H]1c2n[nH]c(=O)c3cc(F)cc(c23)N[C@@H]1c1ccc(F)cc1 + CNC(C)C(=O)NC1CN(S(=O)(=O)c2cccc(S(=O)(=O)N3CCC4CCC(C(=O)NC(c5ccccc5)c5ccccc5)N4C(=O)C(NC(=O)C(C)NC)C3)c2)CCC2CCC(C(=O)NC(c3ccccc3)c3ccccc3)N2C1=O
IC50 (second compound 0.01 µM): < 0.316 nM
IC50 (second compound 0.0316 µM): < 0.316 nM
IC50 (second compound 0.1 µM): < 0.316 nM
IC50 (second compound 0.316 µM): < 0.316 nM
IC50 (second compound 1 µM): < 0.316 nM
viability, T/C (second compound 0.01 µM, first compound 0.000316 µM): 5.99%
viability, T/C (second compound 0.01 µM, first compound 0.001 µM): 6.41%
viability, T/C [1]: 5.39%
viability, T/C [2]: 5.55%
viability, T/C [3]: 9.54%
viability, T/C [4]: 6.44%
viability, T/C (second compound 0.0316 µM, first compound 0.000316 µM): 7.02%
viability, T/C (second compound 0.0316 µM, first compound 0.001 µM): 6.75%
viability, T/C [7]: 5.6%
viability, T/C [8]: 4.53%
viability, T/C [9]: 3.1%
viability, T/C [10]: 4.55%
viability, T/C (second compound 0.1 µM, first compound 0.000316 µM): 4.37%
viability, T/C (second compound 0.1 µM, first compound 0.001 µM): 3.32%
viability, T/C [13]: 4.82%
viability, T/C [14]: 3.9%
viability, T/C [15]: 2.51%
viability, T/C [16]: 3.65%
viability, T/C (second compound 0.316 µM, first compound 0.000316 µM): 3.1%
viability, T/C (second compound 0.316 µM, first compound 0.001 µM): 3.37%
viability, T/C [19]: 3.42%
viability, T/C [20]: 3.57%
viability, T/C [21]: 2.58%
viability, T/C [22]: 4.61%
viability, T/C (second compound 1 µM, first compound 0.000316 µM): 2.27%
viability, T/C (second compound 1 µM, first compound 0.001 µM): 4.58%
viability, T/C [25]: 3.37%
viability, T/C [26]: 3%
viability, T/C [27]: 3.76%
viability, T/C [28]: 5.53%

O=C(c1ccc(F)c(F)c1Nc1ccc(I)cc1F)N1CC(O)([C@@H]2CCCCN2)C1 + CNC(C)C(=O)NC1CN(S(=O)(=O)c2cccc(S(=O)(=O)N3CCC4CCC(C(=O)NC(c5ccccc5)c5ccccc5)N4C(=O)C(NC(=O)C(C)NC)C3)c2)CCC2CCC(C(=O)NC(c3ccccc3)c3ccccc3)N2C1=O
IC50 (second compound 0.01 µM): < 3.16 nM
IC50 (second compound 0.0316 µM): < 3.16 nM
IC50 (second compound 0.1 µM): < 3.16 nM
IC50 (second compound 0.316 µM): < 3.16 nM
IC50 (second compound 1 µM): < 3.16 nM
viability, T/C [1]: 8.04%
viability, T/C [2]: 5.36%
viability, T/C [3]: 5.61%
viability, T/C [4]: 8.2%
viability, T/C [5]: 12.4%
viability, T/C [6]: 17.3%
viability, T/C [7]: 3.55%
viability, T/C [8]: 6.82%
viability, T/C [9]: 5.25%
viability, T/C [10]: 3.88%
viability, T/C [11]: 6.05%
viability, T/C [12]: 7.48%
viability, T/C [13]: 4.86%
viability, T/C [14]: 5.49%
viability, T/C [15]: 4.59%
viability, T/C [16]: 2.13%
viability, T/C [17]: 3.06%
viability, T/C [18]: 4.14%
viability, T/C [19]: 7.23%
viability, T/C [20]: 3.09%
viability, T/C [21]: 3.2%
viability, T/C [22]: 2.51%
viability, T/C [23]: 3.39%
viability, T/C [24]: 3.61%
viability, T/C [25]: 3.63%
viability, T/C [26]: 3.54%
viability, T/C [27]: 4.37%
viability, T/C [28]: 2.53%
viability, T/C [29]: 2.07%
viability, T/C [30]: 3.08%
